From patent publication US20120252721A1 (priority 2011, published 2012)

Key:
HCV genotype 2a = test: Genotype 2a assay (NS5A-intergenotypic luciferase replicon / genotype 2a infectious virus assay); format: cell-based; details: Hepatitis C virus, read-out: EC50 2a
From the text: The nucleotide sequences of the NS5A region of genotype 2a (GenBank Accession # AB047639), genotype 3a (GenBank Accession #D17763), and genotype 4a (GenBank Accession# DQ418788) were synthesized by an outside vendor. The NS5A region of each of these genotypes included the first 11 amino acids of the protease recognition sequence of genotype 1b, as well as the last 10 amino acids of genotype 1b. The NS5A gene cassettes were excised with site specific restriction endonucleases and ligated into a ZS11-luciferase genotype 1b backbone (backbone contains the genotype 1b NS3 protease, NS4a, NS4b, and NS5b coding regions) with similarly cut restriction enzyme sites. Thus, the newly constructed plasmid contains a genotype 2a-, 3a- or 4a-specific NS5A gene within the 1b-replicon.
These new intergenotypic plasmids were used to establish stable cell lines. RNA was generated from the NS5A intergenotypic plasmids and used in conjunction with a lipofectin reagent to transfect a cured Huh7 cell line. Transfected cells were selected for with G418. After selection has occurred the stable cell lines were propagated, tested for luciferase activity, and RT-PCR with genotype specific primers (either 1a, 2a, 3a, or 4a). Stable cell lines containing the intergenotypic replicon were then fully sequenced and analyzed for proper expression of NS3, NS5A and NS5B proteins.
Drug titration analysis was performed using the luciferase replicon assay described herein.
The genotype 2a infectious virus assay measures the ability of a test compound to inhibit HCV replication in cell culture after 5 days of treatment at the time of HCV genotype 2a virus infection of a permissive human hepatoma cell line (HPC cells). The inhibition of HCV replication was measured by quantification of HCV core protein expression by an enzyme-linked immunosorbent assay (ELISA). Briefly, HPC cells were grown in DMEM containing glucose, L-glutamine and sodium pyruvate, 10% FBS, 100 IU/mL penicillin, 100 μg/mL streptomycin, 2 mM GlutaMAX, and non-essential amino acids. GlutaMAX was obtained from Invitrogen, Corp.; all other media reagents were obtained from Mediatech, Inc. For dose-response testing, ninety-six-well plates were seeded with HPC cells at a density of 2.5×10^3 cells/well in a volume of 50 μL, and incubated at 37° C./5% CO2. Three hours after plating, 50 μL of ten 5-fold serial dilutions of compound and 100 μL of genotype 2a virus were added, and cell cultures were incubated at 37° C./5% CO2. In all cases, mock infected HPC cells served as negative control. At 16 hours post treatment and infection, the virus inoculum was removed by aspiration. The cultures were treated at the same final concentrations of drug diluted in media and incubated for 4 additional days at 37° C./5% CO2. Subsequently, the core ELISA was performed as follows. The plates were fixed for 90 seconds with acetone/methanol (1:1, v/v), washed three times with KPL wash solution (KPL, Inc.), blocked for 1 hr at room temperature with TNE buffer containing 10% FBS and then incubated for 2 hr at 37° C. with the anti-HCV core mouse monoclonal antibody (Thermo Scientific) diluted in the same buffer. After washing three times with KPL wash solution, the cells were incubated for 1 hr at 37° C. with an anti-mouse immunoglobulin G-peroxidase conjugate in TNE/10% FBS. After washing as described above, the reaction was developed with O-phenylenediamine (Invitrogen). The reaction was stopped after 30 min with 2 NH2SO4, and absorbance was read at 490 nm in a Victor^3V 1420 multilabel counter (Perkin Elmer) and EC50 concentrations were determined using Microsoft Excel and XLfit 4.1 software.
The HCV luciferase replicon assay measures the ability of a test compound to inhibit HCV replication in cell culture after 3 days of treatment in a human hepatoma cell line (Huh-7) bearing an HCV replicon containing a luciferase-neomycin phosphotransferase fusion gene. […]

[1] = system: HCV genotype 1b replicon, NS5B M423T; test: Luciferase replicon transient transfection assay, genotype 1b NS5B M423T; format: cell-based, hepatitis C virus
Experimental: The luciferase replicon transient transfection assay measures the ability of a test compound to inhibit the replication of a transiently-transfected HCV luciferase-bearing wild-type or mutant replicon in cured human hepatoma cells (Huh7.5). The inhibition of HCV replication was measured by quantification of luciferase protein expression. This assay has been validated using a panel of genotype 1a and 1b replicons bearing mutations known to be associated with resistance to BMS-790052. Briefly, subconfluent Huh7.5 cells were electroporated with 10 μg of wild-type or mutant luciferase-bearing HCV replicon RNA. The cells were then seeded in 96-well opaque white plates at 3×10^4 cells/well in 150 μL/well and incubated for 4 hrs at 37° C./5% CO2. […] The plates were agitated on a rotating platform at room temperature for 3 min and read in a Victor^3V microplate reader (Perkin-Elmer) using a 700 nm cut-off filter with a 1 sec read time. EC50 values were calculated from dose response curves from the resulting best-fit equations determined by Microsoft Excel and XLfit 4.1 software.
To determine the replication capacity of each mutant relative to the wild-type parental replicon, transfected cells were plated on two plates and were not treated with compound. Luciferase activity was measured at time points of 4 hrs and 4 days after plating for each replicon. […]

SMILES	EC50 (HCV genotype 2a) [pM]	EC50 ([1]; Hepatitis C virus, genotype 1b, NS5B mutation M423T (confers resistance to Thiophene)) [pM]	Ratio ([1]; {})
COC(=O)N[C@H](C(=O)N1CCC[C@H]1c1ncc(-c2ccc(-c3csc4c(-c5cnc([C@@H]6CCCN6C(=O)[C@@H](NC(=O)OC)C(C)C)[nH]5)csc34)cc2)[nH]1)C(C)C [Compound A15, [(S)-1-((S)-2-{4-[4-(6-{2-[(S)-1-((S)-2-methoxycarbonylamino-3-methyl-butyryl)-pyrrolidin-2-yl]-3H-imidazol-4-yl}-thieno[3,2-b]thiophen-3-yl)-phenyl]-1H-imidazol-2-yl}-pyrrolidine-1-carbonyl)-2-methyl-propyl]-carbamic acid methyl ester]	< 100		
COC(=O)N[C@H](C(=O)N1CCC[C@H]1c1nc2cc(-c3csc4c(-c5ccc(-c6cnc([C@@H]7CCCN7C(=O)[C@H](NC(=O)OC)c7ccccc7)[nH]6)cc5)csc34)ccc2[nH]1)C(C)C [Compound A169, [(S)-1-((S)-2-{6-[6-(4-{(S)-2-[1-((R)-2-methoxycarbonylamino-2-phenyl-acetyl)-pyrrolidin-2-yl]-3H-imidazol-4-yl}-phenyl)-thieno[3,2-b]thiophen-3-yl]-1H-benzoimidazol-2-yl}-pyrrolidine-1-carbonyl)-2-methyl-propyl]-carbamic acid methyl ester]		2	1.22
